Source: US20110117168A1, “METHODS AND COMPOSITIONS FOR SOFT TISSUE REPAIR” (AFFINERGY, INC., priority 2009, published 2011)
Ends that are not written are not given here. spacer = not defined here

Legend:
[1] = tested on: human MSCs; experiment: Capture of MSCs from a mixed cell population with peptide on CELLECTION magnetic beads; format: cell-based; details: starting mixture 38% IM9, 56% U937, 4% MSC
From the text: In this experiment, biotinylated cell binding peptide, SEQ ID NO: 16, was attached to CELLECTION magnetic beads. The CELLECTION beads have streptavidin coupled to a magnetic particle through a DNA linker. Three different cell types, human MSCs, IM-9, and U937 cells were differentially labeled with […] dye and mixed in a ratio such that the MSCs represented ˜4% of the starting cell mixture (the percentage of each cell type in the starting mixture was 38% IM9, 56% U937, and 4% MSC). The cell binding peptide, SEQ ID NO: 16, was biotinylated as described herein at Example 2, as was a general cell binding peptide for use as a control peptide in the experiment. Magnetic particles with no peptide attached, as well as magnetic beads having attached either the cell binding peptide, SEQ ID NO: 16, or the control peptide were tested for their ability to capture human MSCs. The starting cell mixture was incubated with magnetic beads having either attached peptide or no peptide, the beads were washed, and the captured cells were released from the beads by DNase treatment. The cells were measured by flow cytometry histograms shown in 18A-18C. The magnetic beads without peptide captured little or no cells (FIG. 18B). The magnetic beads with attached cell binding peptide SEQ ID NO: 16 captured a cell population that was 96% MSCs (FIG. 18C).

[2] = tested on: human dermal fibroblasts; experiment: Fibroblast binding to peptide-modified collagen coated plates ([…]-GLO); format: cell-based
Experimental: The experiment was performed according to the following procedure. Cell-binding peptide (SEQ ID NO: 4) was covalently attached to soluble collagen as described herein at Example 7. 96-well plates were coated with various amounts of unmodified or the peptide-modified collagen (177 μmol peptide/g collagen) over night at 4° C. Unbound collagen was removed and the plates were blocked for 1 h. After washing, 5,000 human dermal fibroblasts were added per well in serum-free medium for 30 min at 37° C. The plates were washed, and bound cells were detected with […]-GLO (PROMEGA) using a luminometer. At 0.0025 μg collagen, fibroblast binding was increased 11-fold for the peptide-modified collagen compared to unmodified collagen (see FIG. 28).

[3] = tested on: ECFCs; experiment: Capture of ECFCs in flow on collagen-coated coverslips (parallel plate flow chamber); format: cell-based, human; details: 2×10^6 ECFC circulated for 2 h at 37° C.
Experimental: The ability of the collagen modified with endothelial cell binding peptide SEQ ID NO: 4 to capture ECFCs in flow was analyzed as follows. Glass coverslips were coated with unmodified collagen or cell binding peptide modified-collagen and mounted in a polycarbonate parallel plate flow chamber. PBS/10% FBS was circulated through a closed 150 ml system to block the coverslips. Approximately 2×10^6 ECFC were injected into the system and were circulated for 2 h at 37° C. Coverslips were washed in PBS to remove loosely adhering cells, the remaining cells on the coverslips were lysed in CELLTITERGLO (INVITROGEN, CA), and the cells enumerated by luminescence against a standard curve.

[4] = tested on: HUVECs; experiment: HUVEC colonization and proliferation on peptide-modified collagen; format: cell-based, human; details: 7,000 HUVECs, 48 hours at 37° C.
Experimental: In 96-well plates 7,000 HUVECs were plated on peptide-modified soluble collagen or unmodified collagen for 48 hours at 37° C. Plates were removed and washed and the remaining attached cells were detected using […]-GLO on a luminometer.

[5] = tested on: HUVECs; experiment: HUVEC capture and retention on peptide-modified collagen coated 96-well plates ([…]-GLO); format: cell-based, human
Experimental: After washing, 10,000 HUVECs were added per well in serum free medium for 30 min at 37° C. The plates were washed 3 times with PBS containing 2% FBS, and captured cells were detected with […]-GLO (INVITROGEN) using a luminometer and a standard curve. […] For FIG. 21B, the collagen was extracted in gel loading buffer, separated by PAGE, and total protein was stained with SIMPLYBLUE (INVITROGEN). […] Plates with captured HUVECs were prepared as described in FIG. 20A. […]

[6] = tested on: HUVECs; experiment: Retention of HUVECs under shear stress on collagen-coated cover-slips; format: cell-based, human
Experimental: The ability of the collagen modified with endothelial cell binding peptide SEQ ID NO: 4 to retain HUVECs under shear stress was analyzed as follows. Glass cover-slips were coated with peptide conjugated collagen or unmodified collagen and seeded with HUVECs. Coverslips were secured in a polycarbonate slide with six 1 cm diameter wells enabling simultaneous testing of materials. A closed loop peristaltic pump was used to expose the samples to flow conditions for 30 minutes at laminar flow rates up to 12 dynes/cm^2 in PBS containing 2% FBS. The number of cells retained on the cover slip was determined using […]-GLO (INVITROGEN) and a luminometer.

[7] = tested on: HUVECs; experiment: Endothelial cell phenotype and anti-thrombogenic protein expression on peptide-modified collagen; format: cell-based, human; details: HUVECs cultured 24 hours; t-PA and 6-keto Prostaglandin F1a ELISA, flow cytometry
Experimental: Once immobilized on a vascular graft, endothelial cells must retain their characteristic properties of promoting endothelialization. Therefore, the phenotype, viability, and anti-thrombogenic protein expression profiles were evaluated for endothelial cells in the presence of collagen modified with the endothelial cell binding peptide SEQ ID NO: 4 (generated according to Example 7 using BS^3 reagent). […] Specifically, HUVECs were plated on SEQ ID NO: 4 peptide-modified collagen, collagen with 10 μM free SEQ ID NO: 4 peptide or collagen alone for 24 hours. Flow cytometry was performed using a BD […], and ELISAs were performed according to manufacturers instructions. (FIGS. 22A & 22B). Tissue-type Plasminogen Activator (t-PA) and 6-keto Prostaglandin F1a protein expression levels secreted in this assay are aligned with other reports on cultured HUVECS (Kimura and Yokoi-Hayashi, Biochim Biophys Acta, 1996, 1310:1-4; Merhi-Soussi et al., J Leukoc Biol, 2000, 68:881-9).

Row | Substance | MSCs in captured cell population [1] | fibroblast binding increase compared to unmodified collagen ([2]; 0.0025 μg collagen, 5,000 human dermal fibroblasts, 30 min at 37° C.) | fibroblast binding at higher concentrations of collagen ([2]; data not shown) | cells captured in flow versus unmodified collagen [3] | HUVEC colonization and proliferation versus unmodified collagen [4] | HUVECs retained versus unmodified collagen after agitation ([5]; 1 hour with agitation in PBS containing 2% FBS) | increase in cell retention over unmodified collagen ([5]; 10,000 HUVECs per well, serum free medium, 30 min at 37° C.) | cells captured versus unmodified collagen ([6]; HUVECs, 30 minutes, laminar flow up to 12 dynes/cm^2) | effect of shear stress on cell capture ([6]; laminar flow up to 12 dynes/cm^2, 30 minutes) | endothelial cell phenotype and anti-thrombogenic protein secretion [7]
1 | SSFRFGPLGTWNYPSTDNAE (also: biotin (position not given here)) [SEQ ID NO: 16, tested biotinylated] | 96% |  |  |  |  |  |  |  |  | 
2 | peptide-modified collagen: soluble bovine type I collagen with SEQ ID NO: 4 covalently attached via BS^3 crosslinking reagent (SSFWDVCQGDGTCYGGGSR-{spacer-Lys}; cysteine pairing not given here; reading uncertain; also: conjugated to soluble bovine type I collagen via BS3 (site not given here)) |  | 11 fold | Increased cell binding | about 20 fold | colonize and proliferate equally | 7 fold | 3 fold | about 3 fold | did not significantly affect cell capture | maintained their endothelial cell phenotype and their ability to secrete anti-thrombogenic proteins
